System: Trypanosoma cruzi
Test: Antitrypanosomal activity against Trypanosoma cruzi Y trypomastigotes after 1 day
Assay type: functional, organism-based
Conditions: 24 h

| Compound | IC50 [µM] |
| --- | --- |
| CC1(C)OC2=C(C(=O)C(=O)c3ccccc32)C1n1cc(COC2CCCCO2)nn1 (centres undefined) | 257 |
| O=C(Cn1ccnc1[N+](=O)[O-])NCc1ccccc1 [BENZNIDAZOLE] | 104 |
| CN(C)c1ccc(C(=C2C=CC(=[N+](C)C)C=C2)c2ccc(N(C)C)cc2)cc1 [GENTIAN VIOLET] | 536 |
| CC(C)=CC1=C(O)C(=O)c2ccccc2C1=O | 1280 |
| CC1(C)OC2=C(C(=O)C(=O)c3ccccc32)C1n1cc(-c2ccccc2)nn1 (centres undefined) | 17.3 |
| CC1(C)OC2=C(C(=O)C(=O)c3ccccc32)C1N=[N+]=[N-] (centres undefined) | 50.2 |
| CC1(C)OC2=C(C(=O)C(=O)c3ccccc32)C1n1cc(CO)nn1 (centres undefined) | 348 |
| CC(C)(O)c1cn(C2C3=C(OC2(C)C)c2ccccc2C(=O)C3=O)nn1 (centres undefined) | 152 |
| CC1(C)OC2=C(C(=O)C(=O)c3ccccc32)C1n1cc(C2(O)CCCCC2)nn1 (centres undefined) | 57.8 |

Reference: ChEMBL document CHEMBL1140963, “Naphthoquinoidal [1,2,3]-triazole, a new structural moiety active against Trypanosoma cruzi” (Eur J Med Chem, 2008)
